The text below walks through data of US10253015B2, “Pyridinyl quinolinone derivatives as mutant-isocitrate dehydrogenase inhibitors” (FORMA TM2, Inc., priority 2014, dated 2019).

Assay [1] concerns the target IDH1-R132H recombinant protein (Homo sapiens (Human), UniProt O75874, R132H). In words: IDH1-R132H enzymatic assay. The format is biochemical. The note with it: inhibition of NADPH consumption, diaphorase/resazurin readout; read-out: Enzyme IDH1 R132H Range IC50. The protocol:
(§1) Assays were performed in a 384-well black plate. […] After the plate was centrifuged briefly, an aliquot of 10 μL of 2 mM α-ketoglutarate and 20 μM NADPH solution prepared in assay buffer was then added to each well and the reaction was maintained at 25° C. for 45 minutes. An aliquot of 10 μL of diaphorase solution (0.15 U/mL diaphorase and 30 μM Resazurin in assay buffer) was added to each well. […] The IC50 of a given compound was calculated by fitting the dose response curve of inhibition of NADPH consumption at a given concentration with the four parameter logistic equation.

The target of assay [2] is IDH1-R132C recombinant protein (Homo sapiens (Human), UniProt O75874, R132C). Put plainly: IDH1-R132C enzymatic assay. Type of assay: biochemical. As to conditions: inhibition of NADPH consumption, diaphorase/resazurin readout; read-out: Enzyme IDH1 R132C Range IC50. The protocol: as §1
Sequence of IDH1-R132C recombinant protein (O75874 whole entry R132C): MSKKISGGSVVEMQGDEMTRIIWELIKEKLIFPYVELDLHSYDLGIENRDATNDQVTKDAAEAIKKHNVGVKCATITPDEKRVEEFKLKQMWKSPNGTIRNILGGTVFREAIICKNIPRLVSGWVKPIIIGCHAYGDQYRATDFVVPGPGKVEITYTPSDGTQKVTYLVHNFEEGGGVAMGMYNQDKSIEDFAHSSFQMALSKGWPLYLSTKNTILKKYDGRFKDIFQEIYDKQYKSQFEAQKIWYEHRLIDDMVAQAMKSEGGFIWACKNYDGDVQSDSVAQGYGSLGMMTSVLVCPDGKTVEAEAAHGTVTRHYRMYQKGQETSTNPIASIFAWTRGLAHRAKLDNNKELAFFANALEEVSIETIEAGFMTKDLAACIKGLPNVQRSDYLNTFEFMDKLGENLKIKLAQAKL
Background: The colour change of resazurin is a common sign of viable cells or microbes.

Sequence of IDH1-R132H recombinant protein (O75874 whole entry R132H): as the sequence (O75874 whole entry R132C) above, with C132H counted along it

The term IC50 denotes the concentration that gives 50% inhibition. On to `Cc1cc(-c2ccnc(N[C@@H](C)c3cc4cc(Cl)ccc4[nH]c3=O)c2)n(C)n1` [Compound I-39, 6-chloro-3-[(1S)-1-{[4-(1,3-dimethyl-1H-pyrazol-5-yl)pyridin-2-yl]amino}ethyl]-1,2-dihydroquinolin-2-one], for which the IC50 fell in the range of 1000 to 10000 nM in assay [1] and 100 to 1000 nM in assay [2].

Take `CC(C)[C@H]1COC(=O)N1c1cccc(N[C@@H](C)c2cc3cc(Cl)ccc3[nH]c2=O)n1` [Compound I-19, 6-chloro-3-[(1S)-1-({6-[(4S)-2-oxo-4-(propan-2-yl)-1,3-oxazolidin-3-yl]pyridin-2-yl}amino)ethyl]-1,2-dihydroquinolin-2-one]: the IC50 in assay [1] was in the range of 100 to 1000 nM; in assay [2], 1000 to 10000 nM.

As to `C[C@H](Nc1nccc(NCCO)c1F)c1cc2cc(Cl)ccc2[nH]c1=O` [Compound I-36, 6-chloro-3-[(1S)-1-({3-fluoro-4-[(2-hydroxyethyl)amino]pyridin-2-yl}amino)ethyl]-1,2-dihydroquinolin-2-one], the figures for the IC50 in assay [1] and in assay [2] were 1000 to 10000 nM and > 10000 nM, respectively.

In the case of `COc1cc(N[C@@H](C)c2cc3cc(Cl)ccc3n(C)c2=O)ncc1C#N` [Compound I-2, 6-{[(1S)-1-(6-chloro-1-methyl-2-oxo-1,2-dihydroquinolin-3-yl)ethyl]amino}-4-methoxypyridine-3-carbonitrile], the IC50 in assay [1] and in assay [2] was 1000 to 10000 nM in each case.

In the case of `C[C@H](Nc1cc(-c2ccnn2C2CCCCO2)ccn1)c1cc2cc(Cl)ccc2[nH]c1=O` (stereo partly drawn) [Compound I-47, 6-chloro-3-[(1S)-1-({4-[1-(oxan-2-yl)-1H-pyrazol-5-yl]pyridin-2-yl}amino)ethyl]-1,2-dihydroquinolin-2-one], the IC50 in assay [1] and in assay [2] was 1000 to 10000 nM in each case.

Turning to `Cc1nc(NCc2cc3cc(Cl)c(OCCN4CCN(S(C)(=O)=O)CC4)cc3[nH]c2=O)ccc1C#N` [Compound I-85, 6-[({6-chloro-7-[2-(4-methanesulfonylpiperazin-1-yl)ethoxy]-2-oxo-1,2-dihydroquinolin-3-yl}methyl)amino]-2-methylpyridine-3-carbonitrile], the IC50 in assay [1] is < 100 nM; in assay [2] it was 100 to 1000 nM.

In the case of `C[C@H](Nc1nccc(-c2ccnn2C)c1F)c1cc2cc(Cl)ccc2[nH]c1=O` [Compound I-53, 6-chloro-3-[(1S)-1-{[3-fluoro-4-(1-methyl-1H-pyrazol-5-yl)pyridin-2-yl]amino}ethyl]-1,2-dihydroquinolin-2-one], the IC50 was 1000 to 10000 nM in assay [1] and > 10000 nM in assay [2].

`C[C@H](Nc1cc(-c2ccnn2C)ccn1)c1cc2cc(Cl)ccc2[nH]c1=O` [Compound I-49, 6-chloro-3-[(1S)-1-{[4-(1-methyl-1H-pyrazol-5-yl)pyridin-2-yl]amino}ethyl]-1,2-dihydroquinolin-2-one]: the IC50 in assay [1] and in assay [2] was 1000 to 10000 nM each time.

In the case of `N#Cc1ccc(NCc2cc3cc(Cl)ccc3[nH]c2=O)nc1` [Compound I-67, 6-{[(6-chloro-2-oxo-1,2-dihydroquinolin-3-yl)methyl]amino}pyridine-3-carbonitrile], the IC50 in assay [1] is 100 to 1000 nM; in assay [2], > 10000 nM.

Take `N#Cc1ccc(NCc2cc3cc(Cl)ccc3[nH]c2=O)nc1Cl` [Compound I-62, 2-chloro-6-{[(6-chloro-2-oxo-1,2-dihydroquinolin-3-yl)methyl]amino}pyridine-3-carbonitrile]: the IC50 in assay [1] was > 10000 nM.

Consider `Cc1cc(-c2ccnc(N[C@@H](C)c3cc4cc(Cl)ccc4[nH]c3=O)c2F)n(C)n1` [Compound I-52, 6-chloro-3-[(1S)-1-{[4-(1,3-dimethyl-1H-pyrazol-5-yl)-3-fluoropyridin-2-yl]amino}ethyl]-1,2-dihydroquinolin-2-one], for which the IC50 in assay [1] is 1000 to 10000 nM; in assay [2], > 10000 nM.

As to `O=c1[nH]c2ccc(Cl)cc2cc1CNc1ccc(C(F)(F)F)cn1` [Compound I-77, 6-chloro-3-({[5-(trifluoromethyl)pyridin-2-yl]amino}methyl)-1,2-dihydroquinolin-2-one], the IC50 in assay [1] is > 10000 nM.

As to `N#Cc1ccc(NCc2cc3cc(Cl)ccc3[nH]c2=O)nc1C(F)(F)F` [Compound I-60, 6-{[(6-chloro-2-oxo-1,2-dihydroquinolin-3-yl)methyl]amino}-2-(trifluoromethyl)pyridine-3-carbonitrile], in assay [1], the IC50 lay within 1000 to 10000 nM.

As for `N#Cc1ccc(NCc2cc3cc(Cl)ccc3[nH]c2=O)nc1N1CCOC1=O` [Compound I-63, 6-{[(6-chloro-2-oxo-1,2-dihydroquinolin-3-yl)methyl]amino}-2-(2-oxo-1,3-oxazolidin-3-yl)pyridine-3-carbonitrile], the IC50 in assay [1] is > 10000 nM.

Turning to `Cc1nc(NC2(c3cc4cc(Cl)ccc4[nH]c3=O)CC2)ccc1C#N` [Compound I-31, 6-{[1-(6-chloro-2-oxo-1,2-dihydroquinolin-3-yl)cyclopropyl]amino}-2-methylpyridine-3-carbonitrile], the IC50 in assay [1] was in the range of 100 to 1000 nM.

Turning to `COc1nc(NCc2cc3cc(Cl)ccc3[nH]c2=O)ccc1C#N` [Compound I-66, 6-{[(6-chloro-2-oxo-1,2-dihydroquinolin-3-yl)methyl]amino}-2-methoxypyridine-3-carbonitrile], in assay [1], the IC50 was > 10000 nM.

For `Cc1cc(NCCO)cc(N[C@@H](C)c2cc3cc(Cl)ccc3[nH]c2=O)n1` [Compound I-33, 6-chloro-3-[(1S)-1-({4-[(2-hydroxyethyl)amino]-6-methylpyridin-2-yl}amino)ethyl]-1,2-dihydroquinolin-2-one], the concentration for half-maximal inhibition (IC50) in assay [1] lay in the range of 1000 to 10000 nM.

As to `Cc1cn(-c2ccnc(N[C@@H](C)c3cc4cc(Cl)ccc4[nH]c3=O)c2F)cn1` [Compound I-38, 6-chloro-3-[(1S)-1-{[3-fluoro-4-(4-methyl-1H-imidazol-1-yl)pyridin-2-yl]amino}ethyl]-1,2-dihydroquinolin-2-one], the IC50 in assay [1] lay in the range of 1000 to 10000 nM.

In the case of `O=c1[nH]c2ccc(Cl)cc2cc1CNc1ccc(Cl)cn1` [Compound I-75, 6-chloro-3-{[(5-chloropyridin-2-yl)amino]methyl}-1,2-dihydroquinolin-2-one], the IC50 in assay [1] lay within 1000 to 10000 nM.

With `COc1nc(C#N)ccc1NCc1cc2cc(Cl)ccc2[nH]c1=O` [Compound I-61, 5-{[(6-chloro-2-oxo-1,2-dihydroquinolin-3-yl)methyl]amino}-6-methoxypyridine-2-carbonitrile], the IC50 in assay [1] was < 100 nM.

For the compound `COC(=O)c1cccc(NCc2cc3cc(Cl)ccc3[nH]c2=O)n1` [Compound I-73, methyl 6-{[(6-chloro-2-oxo-1,2-dihydroquinolin-3-yl)methyl]amino}pyridine-2-carboxylate], the IC50 in assay [1] lay in the range of 1000 to 10000 nM.

As for `C[C@H](Nc1nccc(-c2cccn2C)c1F)c1cc2cc(Cl)ccc2[nH]c1=O` [Compound I-42, 6-chloro-3-[(1S)-1-{[3-fluoro-4-(1-methyl-1H-pyrrol-2-yl)pyridin-2-yl]amino}ethyl]-1,2-dihydroquinolin-2-one], in assay [1], the IC50 is 1000 to 10000 nM.

Consider `C[C@H](Nc1nccc(-c2ccnn2C2CCCCO2)c1F)c1cc2cc(Cl)ccc2[nH]c1=O` (stereo partly drawn) [Compound I-55, 6-chloro-3-[(1S)-1-({3-fluoro-4-[1-(oxan-2-yl)-1H-pyrazol-5-yl]pyridin-2-yl}amino)ethyl]-1,2-dihydroquinolin-2-one], for which, in assay [1], the IC50 was > 10000 nM.

As to `CC(C)n1nccc1-c1ccnc(N[C@@H](C)c2cc3cc(Cl)ccc3[nH]c2=O)c1F` [Compound I-57, 6-chloro-3-[(1S)-1-({3-fluoro-4-[1-(propan-2-yl)-1H-pyrazol-5-yl]pyridin-2-yl}amino)ethyl]-1,2-dihydroquinolin-2-one], the IC50 in assay [1] was > 10000 nM.
